Measurements as given in US7097988B1 (ADVANCED RESEARCH AND TECHNOLOGY INSTITUTE, dated 2006).

Key:
[1] = molecular target: T1, μ-opioid receptor encoded by MOR-1 (inhibition of adenylyl cyclase) (Rattus norvegicus, UniProt P33535, V245I); experiment: Forskolin-stimulated cAMP levels in COS-7 cells expressing MOR-1; format: cell-based; details: 100 nM DAGO, 10 μM forskolin, transfected cells, p<0.05
T1 construct: A 1.4-kilobase HindIII fragment encompassing the open reading frame from the cDNA encoding MOR-1 was cloned; expressed in transfected cells; host or cells: COS-7

[2] = molecular target: T2, mu opioid receptor (Rattus norvegicus, UniProt P33535, V245I); format: biochemical; details: 10 μM DAMGO
T2 construct: expressed in transfected cells

[3] = molecular target: T3, human μ opioid receptor coupled to G protein-activated K+ channel (Homo sapiens, UniProt P35372); format: cell-based
T3 construct: Messenger RNAs encoding both proteins (Chen and Yu, 1994) were generated by in vitro transcription and injected into Xenopus oocytes; expressed in transfected cells; host or cells: Xenopus laevis oocytes (mRNA injection)

[4] = molecular target: T4, rat μ opioid receptor (Rattus norvegicus, UniProt P33535, V245I); experiment: Saturation binding of [3H]DAMGO, membranes of CHO cells stably expressing rat μ opioid receptor (Example VII)
T4 construct: A plasmid containing a 1.4 kb cDNA for the rat μ opioid receptor in a mammalian expression vector pRc/CMV has been described; expressed in transfected cells

[5] = molecular target: T5, rat μ opioid receptor coupled to G protein-activated K+ channel (Rattus norvegicus, UniProt P33535, V245I); format: cell-based
T5 construct: A cDNA clone, MOR-1, containing the protein coding region of a rat μ opioid receptor has been described; expressed in transfected cells; host or cells: Xenopus oocytes (mRNA injection)

[6] = molecular target: T6, novel member of the opioid receptor gene family (SEQ ID NO: 17) (Rattus norvegicus, UniProt P35370); format: cell-based
T6 construct: mRNA of this clone was synthesized by in vitro transcription and coinjected into Xenopus oocytes; expressed in transfected cells; host or cells: Xenopus oocytes (mRNA injection)

[7] = molecular target: T7, mu opioid receptor / voltage-activated calcium channel (Rattus norvegicus, UniProt P33535, V245I); experiment: Barium currents in Xenopus oocytes coexpressing voltage-activated calcium channel and mu opioid receptor; format: cell-based; details: 1 μM DAMGO for 5 min, entire activation voltage range
T7 construct: one cDNA clone contained an open reading frame of 1194 bp, encoding a protein of 398 amino acids; expressed in transfected cells; host or cells: Xenopus oocytes (plasmid microinjection)

[8] = molecular target: human μ opioid receptor (Homo sapiens, UniProt P35372)
[9] = molecular target: T8, rat μ opioid receptor (inhibition of adenylyl cyclase) (Rattus norvegicus, UniProt P33535, V245I)
[10] = molecular target: cloned rat μ receptor (Rattus norvegicus, UniProt P33535, V245I); details: previously reported; cited from earlier work
[11] = molecular target: T8, rat μ opioid receptor (inhibition of adenylyl cyclase); experiment: Cyclic AMP assay in transfected CHO cells, naive or chronically morphine-treated; details: for DAMGO/control (forskolin + DAMGO vs forskolin only cAMP): 1 μM DAMGO, 2 μM forskolin; for Intracellular cAMP level, Forskolin + DAMGO: forskolin 2 μM, DAMGO 1 μM
[12] = molecular target: cloned human μ receptor (Homo sapiens, UniProt P35372); experiment: Saturation binding of [3H]DAMGO, COS-7 membranes expressing cloned human μ receptor (Example XII); set-up: the cDNA containing the open reading frame of the receptor was cloned downstream of the human cytomegalovirus promoter in the mammalian expression vector pcDNA3; expressed in transfected cells; host or cells: COS-7 (transient)
[13] = cells treated with 1 μM morphine for 24 hours

T8 sequence (P33535 whole entry V245I): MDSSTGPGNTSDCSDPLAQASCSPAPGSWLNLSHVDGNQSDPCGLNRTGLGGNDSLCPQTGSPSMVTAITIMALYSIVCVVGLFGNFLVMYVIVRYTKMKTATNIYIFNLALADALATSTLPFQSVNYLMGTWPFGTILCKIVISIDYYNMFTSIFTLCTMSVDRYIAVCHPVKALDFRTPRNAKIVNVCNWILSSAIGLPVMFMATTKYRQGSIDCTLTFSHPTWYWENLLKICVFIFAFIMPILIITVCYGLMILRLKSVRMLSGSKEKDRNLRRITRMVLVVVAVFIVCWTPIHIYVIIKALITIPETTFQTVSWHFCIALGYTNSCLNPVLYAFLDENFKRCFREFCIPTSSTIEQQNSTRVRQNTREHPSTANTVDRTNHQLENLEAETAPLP
T6 sequence (P35370 whole entry): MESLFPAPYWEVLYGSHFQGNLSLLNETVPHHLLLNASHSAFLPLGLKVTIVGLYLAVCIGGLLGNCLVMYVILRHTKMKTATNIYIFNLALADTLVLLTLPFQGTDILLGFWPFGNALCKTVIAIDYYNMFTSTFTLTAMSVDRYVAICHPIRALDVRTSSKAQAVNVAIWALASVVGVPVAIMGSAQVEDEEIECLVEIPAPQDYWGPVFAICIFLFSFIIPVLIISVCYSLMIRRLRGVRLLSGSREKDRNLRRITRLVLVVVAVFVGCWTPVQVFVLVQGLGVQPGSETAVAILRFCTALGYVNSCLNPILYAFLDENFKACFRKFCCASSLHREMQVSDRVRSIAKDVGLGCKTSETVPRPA
T4 sequence (P33535 whole entry V245I): as the sequence (P33535 whole entry V245I) above
T1 sequence (P33535 whole entry V245I, the tested form may be a part): as the sequence (P33535 whole entry V245I) above
T2 sequence (P33535 whole entry V245I): as above
T7 sequence (P33535 whole entry V245I): as above
cloned rat μ receptor, sequence (P33535 whole entry V245I): as above
T5 sequence (P33535 whole entry V245I): as above
T3 sequence (P35372 whole entry): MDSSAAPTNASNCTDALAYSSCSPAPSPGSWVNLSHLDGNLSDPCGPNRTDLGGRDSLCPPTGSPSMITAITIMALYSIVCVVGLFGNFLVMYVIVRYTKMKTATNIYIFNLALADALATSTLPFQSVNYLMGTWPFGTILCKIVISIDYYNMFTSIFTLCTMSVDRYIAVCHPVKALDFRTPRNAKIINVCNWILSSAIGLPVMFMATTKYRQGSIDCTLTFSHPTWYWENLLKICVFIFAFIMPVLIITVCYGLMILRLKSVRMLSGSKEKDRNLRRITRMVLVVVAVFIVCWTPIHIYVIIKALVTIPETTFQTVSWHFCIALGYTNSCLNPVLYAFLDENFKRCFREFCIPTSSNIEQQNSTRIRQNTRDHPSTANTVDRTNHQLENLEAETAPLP
human μ opioid receptor, sequence (P35372 whole entry): as above
cloned human μ receptor, sequence (P35372 whole entry): as above

## C[C@@H](NC(=O)[C@@H](N)Cc1ccc(O)cc1)C(=O)NCC(=O)N(C)[C@@H](Cc1ccccc1)C(=O)NCCO [DAMGO, [D-Ala^2, N-Me-Phe^4, Gly-ol^5]-enkephalin]
[1]
  reduction of cAMP levels from control: 18.1±2.5%
[2]
  increase of GTPase activity: 30%
[3]
  membrane current upon receptor activation (in words): an inward current was observed
[4]
  Bmax: ~630 fmol/mg membrane protein
[5]
  membrane current upon DAMGO exposure (in words): produced an inward membrane current
[6]
  induction of potassium conductance (in words): no potassium conductance was induced
[7]
  reduction in barium currents through the calcium channel: over 80%
[8]
  Bmax: 381±25 fmol/mg of membrane protein
[9]
  inhibition: ~60%
[10]
  Bmax: 444 fmol/mg protein
[11]
  effect on intracellular cAMP level in non-transfected parental CHO cells: had no effect
[11]; [13]
  DAMGO/control (forskolin + DAMGO vs forskolin only cAMP): 42.4%
  Intracellular cAMP level, Forskolin + DAMGO: 38.9 ± 1.4 fmol/1 × 10^3 cells
[11]; naive cells
  DAMGO/control (forskolin + DAMGO vs forskolin only cAMP): 71.9%
  Intracellular cAMP level, Forskolin + DAMGO: 25.6 ± 0.3 fmol/1 × 10^3 cells
[12]
  Bmax: 232 fmol/mg
